“Also recorded” adds a separate entry of the source.
Assays:
IDO1 [1] = biological target: T1, IDO1 (Homo sapiens, UniProt P14902); test: IDO1 degradation in BxPC3 cells, IDO1 protein levels by immunoblotting; format: cell-based; details: 50 ng/ml IFN-γ 24 h, washout, compound (100 nM) 24 h, maximum IDO1 degradation at 0.1 µM; for Dmax at 0.1 µM: BXPC-3, BxPC3 cells; for Dmax [%] (n): BxPC3 cells;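 on all read-outs here: IDO1 bands on Western blots detected with fluorescent dye-labelled secondary antibodies and quantified by band intensity, values are means of n biological replicates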
T1 construct: BxPC3 cells were seeded in phenol red-free RPMI 1640 medium; endogenous in cells; host or cells: BxPC3 cells stimulated with IFN-γ (50 ng/mL)
T1 sequence (P14902 whole entry): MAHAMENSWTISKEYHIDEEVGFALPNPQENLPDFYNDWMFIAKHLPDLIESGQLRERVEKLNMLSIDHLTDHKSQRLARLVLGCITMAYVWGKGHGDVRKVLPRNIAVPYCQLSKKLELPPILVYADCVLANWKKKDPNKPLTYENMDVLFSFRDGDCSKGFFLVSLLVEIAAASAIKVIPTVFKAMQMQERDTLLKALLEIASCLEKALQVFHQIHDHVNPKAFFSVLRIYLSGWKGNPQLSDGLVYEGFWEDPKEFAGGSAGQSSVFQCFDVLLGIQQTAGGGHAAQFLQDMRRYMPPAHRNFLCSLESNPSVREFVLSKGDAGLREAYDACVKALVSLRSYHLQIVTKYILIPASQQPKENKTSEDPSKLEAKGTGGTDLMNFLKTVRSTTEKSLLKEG
Description: To analyze IDO1 levels, IFN-γ-stimulated BxPC3 cells (50 ng/mL IFN-γ), U2OS cells (5 ng/mL IFN-γ), HEK^rhIDO1 (HEK293T cells electroporated with rhIDO1), SKOV3 and BT549 cells were treated with compounds for the indicated times (6 h to 24 h) followed by cell lysis (150 mM sodium chloride in 50 mM Tris (pH 8.0) and 1% NP-40 Alternative, protease and phosphatase inhibitors). Protein concentrations were determined (DC protein assay, Bio-Rad) followed by addition of 1 × SDS loading buffer and protein separation by a 10% SDS-PAGE. Separated protein samples were transferred to a polyvinylidene difluoride (PVDF) membrane using a wet-tank blotting system (Bio-Rad). IDO1 as well as vinculin as a loading were detected using the primary antibodies anti-IDO1 (ab211017, abcam or 14-9750-80, Thermo Fisher), anti-vinculin (V9131, Thermo Fisher) and anti-β-actin (ab8227, abcam) in 5 % milk in PBS-buffered saline with 0.05 % (v/v) Tween-20 (PBS-T). Primary antibodies were incubated at 4°C overnight and detected with IRDye-conjugated secondary antibodies (LI-COR Biosciences). IDO1 protein level in BT549 and SKOV3 cells was detected with HRP conjugated secondary antibody and SuperSignal™ West Dura Extended Duration Substrat (Thermo Fisher Scientific). Washing steps were performed with PBS-T. Protein bands were visualized by ChemiDoc™ MP (Bio-Rad) using a fluorescent readout. Band intensities were quantified using Image Lab software.
In order to differentiate between these different activities, we explored the modes of action of selected compounds in an in vitro assay employing recombinant human IDO1 (rhIDO1) monitoring enzymatic activity only, and we characterized the degradation efficiency by means of Western blotting, determining maximum degradation levels at 0.1µM (Dmax) and half maximum degradation concentration (DC50) (Table B-2). […] Data are mean values of n biological replicates. Dmax corresponds to maximum levels of IDO1 degradation at 0.1 µM.

IDO1 [2] = biological target: T1, IDO1; test: Kyn assay in BxPC-3 cells (Kyn levels after IFN-γ and Trp); format: cell-based; details: for IC50: BxPC-3 cells incubated with IFN-γ, Trp and the compounds for 48 h, read-out: Kyn assay IC50 ± SD; for activity in the cell-based kynurenine assay: result in words;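 on all read-outs here: kyn levels expressed relative to DMSO-treated control cells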
Description: BxPC3 cells were seeded in phenol red-free RPMI 1640 medium in 1536-well or 384-well plates (Greiner #782086, Corning #3770) 24 h prior to the addition of compounds, IFN-γ (50 ng/mL, PeproTech) and L-Trp (380 µM, Sigmal-Aldrich). After 48 h of incubation, first cell viability was accessed by the addition of Hoechst-33342. Afterwards, trichloroacetic acid (TCA, Sigma-Aldrich) was added to a final concentration of 7 % and incubated for 10 min prior to a centrifugation step of 10 min at 1620 × g. Kyn levels were determined by means of the Kyn sensor^7 at a final concentration of 17.5 µM in sensor buffer (50 mM H3PO4 and 120 mM NaCl (pH=1)). Fluorescence intensity (excitation: 535 nm, emission: 595 nm) was measured using a Spectramax Paradigm reader (Molecular Devices). Data were normalized to the values for cells that were treated with DMSO.
For the manual assay, BxPC3 or SKOV3 cells were seeded in clear 96-well or 384-well plates, respectively, 24 h prior to compound treatment and IFN-γ (50 or 5 ng/mL, respectively) and L-Trp (380 µM) addition as described before.^7 48 h after treatment, TCA was added and Kyn levels were detected by means of 2 % w/v of p-DMAB (Ehrlich reagent) in acetic acid as described by Braun et al^29. The absorbance of the Ehrlich reagent was detected at 492 nm and at 650 nm as background control was measured on Spark® multimode microplate plate reader (Tecan, Austria). Kyn levels were determined by subtracting the absorbance value at 650 nm and presented relative to the DMSO control. Dose-response curves and IC50 values were generated and fitted with GraphPad Prism 6.0 (GraphPad software, USA) using four-parameter variable slope non-linear regression curve fit.
Cells were incubated with IFN-γ, Trp and the compounds for 48 h prior to detection of Kyn levels.

[3] = biological target: T2, recombinant human IDO1 (rhIDO1) (Homo sapiens, UniProt P14902); test: IDO1 enzymatic assay with recombinant protein, Kyn detection with p-DMAB; format: biochemical; details: pre-incubated with compounds at 37°C for 40 min; for inhibition at 59 µM / rhIDO1 enzymatic activity Inhibition [%]: in vitro inhibition at 59 uM; for IC50: determined if inhibition at 59 µM was higher than 50%, read-out: rhIDO1 enzymatic activity IC50 ± SD
T2 construct: Full-length rhIDO protein (1 µM) in 50 mM potassium phosphate buffer; GST (cleaved yes); made in house; host or cells: E. coli
T2 sequence (P14902 whole entry): as above
Source text: Reduction of the kynurenine level in the cell-based model employed for initial SAR exploration can be due to inhibition of enzymatic activity, degradation of IDO1, or both (Table B-2). In order to differentiate between these different activities, we explored the modes of action of selected compounds in an in vitro assay employing recombinant human IDO1 (rhIDO1) monitoring enzymatic activity only, and we characterized the degradation efficiency by means of Western blotting, determining maximum degradation levels at 0.1µM (Dmax) and half maximum degradation concentration (DC50) (Table B-2). Table B-2 in vitro inhibition and degradation of IDO1 by selected compounds. […] Data are mean values ± SD (n = 4, except for compounds 1, 11, and 19 (n=2)). […] Data are mean values of n biological replicates. Dmax corresponds to maximum levels of IDO1 degradation at 0.1 µM.
Full-length rhIDO protein (1 µM) in 50 mM potassium phosphate buffer (50 mM KH2PO4 and 50 mM K2HPO4, pH 6.5) was incubated with the respective compounds for 40 min at 37 °C prior to the addition of 10 mM ascorbic acid, 10 µM methylene blue, 2 mM Trp and 100 µg/mL catalase (Sigma-Aldrich, C100). Samples were incubated for 60 min followed by the addition of trichloroacetic acid to a final concentration of 7 % and further incubation for 30 min at 37 °C. Kyn levels were detected by the addition of an equal volume of 2 % (w/v) p-DMAB in acetic acid and absorbance was measured at 492 nm and 650 nm as a background control. Values are presented relative to the DMSO control. Dose-response curves and IC50 values were generated and fitted with GraphPad Prism 6.0 (GraphPad software, USA) using four-parameter variable slope non-linear regression curve fit.

Structure (SMILES)	Dmax at 0.1 µM (IDO1 [1])	Dmax [%] (n) (IDO1 [1])	IC50 (IDO1 [2])	inhibition at 59 µM [3]	activity in the cell-based kynurenine assay (IDO1 [2])	IC50 [3]	rhIDO1 enzymatic activity Inhibition [%] [3]	fold more potent in the Kyn assay than compound 1 (IDO1 [2]; relative to compound 1)
CC(C)(C)c1ccc(S(=O)(=O)N2C[C@H]3C[C@H]4C[C@H](C4(C)C)[C@@]3(COC(=O)Nc3ccc(I)cc3)C2)c(Br)c1 [compound 56, ((3aS,4R,6R,7aS)-2-((2-bromo-4-(tert-butyl)phenyl)sulfonyl)-5,5-dimethyloctahydro-3aH-4,6-methanoisoindol-3a-yl)methyl (4-iodophenyl)carbamate]	55 to 59%	56 ± 4 (3) %	< 200 nM	12 ± 7%	–	–	–	–
CCc1cc(C(C)(C)C)ccc1S(=O)(=O)N1C[C@H]2C[C@H]3C[C@H](C3(C)C)[C@@]2(COC(=O)Nc2ccc(I)cc2)C1 [compound 53, ((3aS,4R,6R,7aS)-2-((4-(tert-butyl)-2-ethylphenyl)sulfonyl)-5,5-dimethyloctahydro-3aH-4,6-methanoisoindol-3a-yl)methyl (4-iodophenyl)carbamate]	55 to 59%	56 ± 4 (3) %	< 200 nM	37 ± 9%	–	–	–	–
C#Cc1ccc(NC(=O)OC[C@]23CN(S(=O)(=O)c4ccc(C(C)(C)C(=O)O)cc4)C[C@H]2C[C@H]2C[C@@H]3C2(C)C)cc1 [compound 74, 2-(4-(((3aS,4R,6R,7aS)-3a-((((4-ethynylphenyl)carbamoyl)oxy)methyl)-5,5-dimethyloctahydro-2H-4,6-methanoisoindol-2-yl)sulfonyl)phenyl)-2-methylpropanoic acid]	54 ± 8%	–	< 200 nM	78 ± 3%	low nanomolar range	310 ± 60 nM	–	–
COC(=O)C(C)(C)c1ccc(S(=O)(=O)N2C[C@H]3C[C@H]4C[C@H](C4(C)C)[C@@]3(COC(=O)Nc3ccc(I)cc3)C2)c(Cl)c1 [compound 68, Methyl 2-(3-chloro-4-(((3aS,4R,6R,7aS)-3a-((((4-iodophenyl)carbamoyl)oxy)methyl)-5,5-dimethyloctahydro-2H-4,6-methanoisoindol-2-yl)sulfonyl)phenyl)-2-methylpropanoate]	–	–	< 200 nM	–	–	–	inactive	–
Cc1cc(C(C)(C)C)ccc1S(=O)(=O)N1C[C@H]2C[C@H]3C[C@H](C3(C)C)[C@@]2(COC(=O)Nc2ccc(I)cc2)C1 [compound 52, ((3aS,4R,6R,7aS)-2-((4-(tert-butyl)-2-methylphenyl)sulfonyl)-5,5-dimethyloctahydro-3aH-4,6-methanoisoindol-3a-yl)methyl (4-iodophenyl)carbamate]	> 60%	65 ± 10(14) %	< 200 nM	48 ± 6%	low nanomolar range	–	–	–
C#Cc1ccc(NC(=O)OC[C@]23CN(S(=O)(=O)c4ccc(C(C)(C)C)cc4)C[C@H]2C[C@H]2C[C@@H]3C2(C)C)cc1 [compound 19]	> 60%	62 ± 10 (5) %	< 200 nM	49 ± 0.6%	low nanomolar range	–	–	–
CC(C)(C)c1ccc(S(=O)(=O)N2C[C@H]3C[C@H]4C[C@H](C4(C)C)[C@@]3(COC(=O)Nc3ccc(I)cc3)C2)c(I)c1 [compound 57, ((3aS,4R,6R,7aS)-2-((4-(tert-butyl)-2-iodophenyl)sulfonyl)-5,5-dimethyloctahydro-3aH-4,6-methanoisoindol-3a-yl)methyl (4-iodophenyl)carbamate]	55 to 59%	55 ± 5 (3) %	< 200 nM	–	–	–	–	–
CC(C)(CC(=O)O)c1ccc(S(=O)(=O)N2C[C@H]3C[C@H]4C[C@H](C4(C)C)[C@@]3(COC(=O)Nc3ccc(I)cc3)C2)cc1 [compound 63, 3-(4-(((3aS,4R,6R,7aS)-3a-((((4-iodophenyl)carbamoyl)oxy)methyl)-5,5-dimethyloctahydro-2H-4,6-methanoisoindol-2-yl)sulfonyl)phenyl)-3-methylbutanoic acid]	36 to 46%	36 ± 2 (3) %	< 200 nM	67 ± 6%	–	1900 ± 500 nM	–	–
CC(C)(C(=O)O)c1ccc(S(=O)(=O)N2C[C@H]3C[C@H]4C[C@H](C4(C)C)[C@@]3(COC(=O)Nc3ccc(I)cc3)C2)c(Cl)c1 [compound 69, 2-(3-chloro-4-(((3aS,4R,6R,7aS)-3a-((((4-iodophenyl)carbamoyl)oxy)methyl)-5,5-dimethyloctahydro-2H-4,6-methanoisoindol-2-yl)sulfonyl)phenyl)-2-methylpropanoic acid]	20 ± 12%	–	< 200 nM	55 ± 2%	–	270 ± 20 nM	–	–
Cc1ccc(NC(=O)OC[C@]23CN(S(=O)(=O)c4ccc(C(C)(C)C)cc4)C[C@H]2C[C@H]2C[C@@H]3C2(C)C)cc1 [compound 1, ((3aS,4R,6R,7aS)-2-((4-(tert-butyl)phenyl)sulfonyl)-5,5-dimethyloctahydro-3aH-4,6-methanoisoindol-3a-yl)methyl p-tolylcarbamate]	–	–	200 to 1000 nM	–	–	–	not active; also recorded: inactive	–
CC(C)(C)c1ccc(S(=O)(=O)N2C[C@H]3C[C@H]4C[C@H](C4(C)C)[C@@]3(COC(=O)Nc3ccc(I)cc3)C2)cc1 [compound 11, ((3aS,4R,6R,7aS)-2-((4-(tert-butyl)phenyl)sulfonyl)-5,5-dimethyloctahydro-3aH-4,6-methanoisoindol-3a-yl)methyl (4-iodophenyl)carbamate]	37%	–	< 200 nM	–	low nanomolar range	–	not active; also recorded: inactive	7 fold
COc1cc(C(C)(C)C(=O)O)ccc1S(=O)(=O)N1C[C@H]2C[C@H]3C[C@H](C3(C)C)[C@@]2(COC(=O)Nc2ccc(I)cc2)C1 [compound 67, 2-(4-(((3aS,4R,6R,7aS)-3a-((((4-iodophenyl)carbamoyl)oxy)methyl)-5,5-dimethyloctahydro-2H-4,6-methanoisoindol-2-yl)sulfonyl)-3-methoxyphenyl)-2-methylpropanoic acid]	0%	–	< 200 nM	–	–	–	–	–
COc1cc(C(C)(C)C)ccc1S(=O)(=O)N1C[C@H]2C[C@H]3C[C@H](C3(C)C)[C@@]2(COC(=O)Nc2ccc(I)cc2)C1 [compound 55, ((3aS,4R,6R,7aS)-2-((4-(tert-butyl)-2-methoxyphenyl)sulfonyl)-5,5-dimethyloctahydro-3aH-4,6-methanoisoindol-3a-yl)methyl (4-iodophenyl)carbamate]	55 to 59%	59 ± 16 (3) %	< 200 nM	–	–	–	–	–
C#Cc1ccc(NC(=O)OC[C@]23CN(S(=O)(=O)c4ccc(C(C)(C)C(=O)O)cc4C)C[C@H]2C[C@H]2C[C@@H]3C2(C)C)cc1 [compound 75, 2-(4-(((3aS,4R,6R,7aS)-3a-((((4-ethynylphenyl)carbamoyl)oxy)methyl)-5,5-dimethyloctahydro-2H-4,6-methanoisoindol-2-yl)sulfonyl)-3-methylphenyl)-2-methylpropanoic acid]	27 ± 14%	–	< 200 nM	–	low nanomolar range	–	–	–
